Data set [1] concerns anesthetized cats (evoked responses of anterior tibial muscle). Nature of the data set: animal or person. Conditions: for ED50: Felis catus, iv; for VB (vagal block) / ΔBP (change in arterial blood pressure) / ΔH (change in heart rate) / RI (recovery index) / Onset: cat; for VB (vagal block) / ΔBP (change in arterial blood pressure) / ΔH (change in heart rate): at 80-85% neuromuscular blocking dose; for RI (recovery index): spontaneous recovery, 25-75% neuromuscular response; for Onset: time to 80-85% neuromuscular block. The text has this:
(§1) a) Adult, male albino rats were anesthetized with pentobarbital injected intraperitoneally. The trachea was cannulated for artificial respiration via a small animal respirator. The carotid artery was cannulated for recording blood pressure via a transducer and heart rate by a cardiotachograph on a polygraph. One external jugular vein was cannulated for i.v. drug administration. Neuromuscular function was monitored by electromyography, recording evoked responses from the anterior tibial muscle as a result of supramaximal nerve stimuli consisting of single or “train-of-four” rectangular pulses of 0.1-0.2 msec duration every 10-12 seconds, delivered to the sciatic or common peroneal nerve by a laboratory nerve stimulator. Another mode of stimulation included repeated single stimuli delivered at 0.1 Hz or 1 Hz. […] The agents were dissolved in physiologic saline and injected intravenously at appropriate time intervals. The intensity, onset, and duration of neuromuscular block and its type were determined with each agent. Through administering several doses, the doses corresponding to 50%, 80% and 90% neuromuscular block were determined. All agents were compared with selected standard neuromuscular blocking compounds, e.g. succinylcholine, pancuronium, mivacurium, or rocuronium.
(§2) Onset=time in minutes to 80-85% neuromuscular block.
(§3) RI=recovery index, minutes, spontaneous recovery, 25-75% neuromuscular response.
(§4) VB=vagal block, %, at 80-85% neuromuscular blocking dose.
(§5) ΔHR=change in heart rate, %, at 80-85% neuromuscular blocking dose.
(§6) ΔBP=change in arterial blood pressure, %, at 80-85% neuromuscular blocking dose.
b) Adult cats were anesthetized with a mixture of 70 mg/kg alpha chloralose and 0.5 g/kg ethylurethane intraperitoneally. One thigh was fixed in a vertical position by means of a pin at the lower end of the femur. Needle electrodes were placed on the sciatic or the common peroneal nerve. A tendon of the anterior tibial muscle was attached to a force transducer and the muscle responses evoked, as described under a), were recorded. Both electromyographic and mechanomyographic responses can be quantified. Blood pressure and heart rate changes were recorded from appropriately cannulated arteries via a blood pressure transducer and cardiotachograph.

For data set [2], the system named is anesthetized rats (evoked responses of anterior tibial muscle). The data set is described as follows: In vivo neuromuscular block and cardiovascular side effects, anesthetized rat (Example 8, Table 3). Conditions: for RI (recovery index): spontaneous recovery, 25-75% neuromuscular response; for Onset: time to 80-85% neuromuscular block.
Source text: The neuromuscular blocking activity and other effects (e.g. cardiovascular side effects) of selected agents were investigated on several different experimental animals. Justification for this approach lies in the commonly known fact that the pharmacodynamic and pharmacokinetic properties of these agents are markedly variable from species to species. Therefore, the most important aspects of the projected therapeutic utility of these agents, e.g., neuromuscular blocking potency, onset and duration of action, and side effects cannot be ascertained in “in vitro” preparations or by using only one species of animals.
as §1, §2, §3, §4, §5, §6

For data set [3], the system named is anesthetized juvenile pigs. The data set is described as follows: animal or person. The class given is in vivo. The following applies: pig; for ED50: intravenous dose causing 50% neuromuscular block; for RI (recovery index): spontaneous recovery, 25-75% neuromuscular response; for Onset: time to 80-85% neuromuscular block. The text has this:
(§7) Both electromyographic and mechanomyographic responses can be quantified.
(§8) The techniques described under a) and b) were employed in other species as needed with the modification that juvenile pigs were initially anesthetized with inhalation of halothane (Table 5) and monkeys were initially sedated with intramuscular ketamine injections prior to inducing and maintaining general anesthesia using pentobarbital and propofol administered intravenously (Table 6).

Data set [4] concerns rabbits. Nature of the data set: In vivo neuromuscular block and cardiovascular side effects, rabbit (Example 8, Table 7). The following applies: for ED50: intravenous dose causing 50% neuromuscular block; for RI (recovery index): spontaneous recovery, 25-75% neuromuscular response; for Onset: time to 80-85% neuromuscular block.
For data set [5], the system named is anesthetized monkeys. The data set is described as follows: In vivo neuromuscular block and cardiovascular side effects, monkey (Example 8, Table 6).
Source text: as §7, §8

The mark [6] stands for this setting: rat, intravenous dose causing 50% neuromuscular block.
Where [7] appears, read: rat, at 80-85% neuromuscular blocking dose.
The mark [8] stands for this setting: at 80-85% neuromuscular blocking dose.

Like-named read-outs stand apart in the source and are kept apart here.

One may read the ED50 as the dose that gives a 50% effect, or the effect in half of the subjects.

With `C[N+]1(C)[C@@H]2CC[C@H]1C[C@@H](OC(=O)CCCCCCCCC(=O)O[C@H]1C[C@H]3CC[C@@H](C1)[N+]3(C)C)C2.[I-].[I-]` [bis[N-methyltropanium-3α-yl]sebacate diiodide, reference compound], in data set [1], the ED50 was found to be 0.125 mg/kg, the “VB (vagal block)” value is 100%, the “ΔBP (change in arterial blood pressure)” value came to 0% and the “ΔH (change in heart rate)” value was determined as 0%. In data set [1], the “RI (recovery index)” value was determined as 3.9 min and the Onset was 2.3 min.
For the compound `CCC(=O)Oc1ccc(C[N+]2(C)C3CCCC2CC(OC(=O)CCCCCC(=O)OC2CC4CCCC(C2)[N+]4(C)Cc2ccc(OC(=O)CC)c(OC(=O)CC)c2)C3)cc1OC(=O)CC.[Br-].[Br-]` (stereo not drawn) [bis[N-(3,4-dipropionyloxybenzyl)granataninium-3-yl]pimelate dibromide], the “VB (vagal block)” value came to 2% in data set [2] (rat, in vivo) and 30% in data set [3] (in vivo). The “ΔBP (change in arterial blood pressure)” value in data set [2] (rat, in vivo) is −6%; in data set [3] (in vivo), 0%; in data set [4] (in vivo) it was 0%. Besides, the “ΔH (change in heart rate)” value was −3% in data set [2] (rat, in vivo); 0% in data set [3] (in vivo); 0% in data set [4] (in vivo). Also, the ED50 in data set [2] (setting [6]) was 0.45 mg/kg; in data set [3], 0.7 mg/kg; in data set [4] it was 0.5 mg/kg. The results for the “RI (recovery index)” value in data set [2] (rat), in data set [3] and in data set [4] were 0.35 min, 0.5 min and 0.4 min, respectively. The values for the Onset in data set [2] (rat), in data set [3] and in data set [4] were 0.5 min, 0.5 min and 0.45 min, respectively.
For `C[N+]1(CC2CC2)[C@@H]2CC[C@H]1C[C@@H](OC(=O)CCCCCCC(=O)O[C@H]1C[C@H]3CC[C@@H](C1)[N+]3(C)CC1CC1)C2.[Br-].[Br-]` (stereo partly drawn) [bis[N-(cyclopropylmethyl)tropanium-3α-yl]suberate dibromide, reference compound], in data set [1], the ED50 is 0.155 mg/kg, the “VB (vagal block)” value is listed as 80%, the “ΔBP (change in arterial blood pressure)” value is recorded as 0% and the “ΔH (change in heart rate)” value is 0%. Besides, in data set [1], the “RI (recovery index)” value stood at 9 min and the Onset turned out to be 1.4 min.
In the case of `CCC(=O)Oc1c(OC)cc(C[N+]2(C)[C@@H]3CC[C@H]2C[C@@H](OC(=O)C2CCCC(C(=O)O[C@H]4C[C@H]5CC[C@@H](C4)[N+]5(C)Cc4cc(OC)c(OC(=O)CC)c(OC)c4)C2)C3)cc1OC.[Br-].[Br-]` (stereo partly drawn) [bis[N-(3,5-dimethoxy-4-propionyloxybenzyl)tropanium-3α-yl]cyclohexane-1,3-dicarboxylate dibromide], the ED50 in data set [2] (Rattus norvegicus, iv) is 0.27 mg/kg; in data set [3] (Sus scrofa, read-out: ED50), 0.25 mg/kg; in data set [4] (Oryctolagus cuniculus, read-out: ED50), 0.4 mg/kg. Moreover, the “VB (vagal block)” value in data set [2] (setting [7]) amounted to 0%; in data set [3] (setting [8]) it was 30%. The “ΔBP (change in arterial blood pressure)” value in data set [2] (setting [7]), in data set [3] (setting [8]) and in data set [4] (setting [8]) was 0% throughout. The “ΔH (change in heart rate)” value in data set [2] (setting [7]), in data set [3] (setting [8]) and in data set [4] (setting [8]) was 0% in each case. In addition, the “RI (recovery index)” value in data set [2] (rat) was 0.45 min; in data set [3], 1.3 min; in data set [4], 0.4 min. Moreover, the values for the Onset in data set [2] (rat), in data set [3] and in data set [4] were 0.55 min, 0.7 min and 0.45 min, respectively.
Take `CCC(=O)Oc1ccc(C[N+]2(C)C3CCCC2CC(OC(=O)C2CCC2C(=O)OC2CC4CCCC(C2)[N+]4(C)Cc2ccc(OC(=O)CC)c(OC(=O)CC)c2)C3)cc1OC(=O)CC.[Br-].[Br-]` (stereo not drawn) [bis[N-(3,4-dipropionyloxybenzyl)granataninium-3-yl]cyclobutane-1,2-dicarboxylate dibromide]: the “VB (vagal block)” value is recorded as 0% in data set [2] (rat, in vivo) and 18% in data set [3] (in vivo). Moreover, the “ΔBP (change in arterial blood pressure)” value in data set [2] (rat, in vivo) is on record as 0%; in data set [3] (in vivo), 0%; in data set [4] (in vivo) it was 0%. Besides, the “ΔH (change in heart rate)” value worked out at 0% in data set [2] (rat, in vivo); 0% in data set [3] (in vivo); 0% in data set [4] (in vivo). Moreover, the ED50 in data set [2] (setting [6]) was 0.155 mg/kg; in data set [3] it was 0.19 mg/kg; in data set [4] it was 0.225 mg/kg. The “RI (recovery index)” value in data set [2] (rat) turned out to be 0.35 min; in data set [3], 0.4 min; in data set [4], 0.5 min. Also, the Onset in data set [2] (rat) turned out to be 0.45 min; in data set [3], 0.5 min; in data set [4] it was 0.55 min.
On to `CCC(=O)Oc1ccc(C[N+]2(C)C3CCCC2CC(OC(=O)CCCC(=O)OC2CC4CCCC(C2)[N+]4(C)Cc2ccc(OC(=O)CC)c(OC(=O)CC)c2)C3)cc1OC(=O)CC.[Br-].[Br-]` (stereo not drawn) [bis[N-(3,4-dipropionyloxybenzyl)granataninium-3-yl]glutarate dibromide], for which the “VB (vagal block)” value in data set [2] (rat, in vivo) stood at 0%; in data set [3] (in vivo) it was 35%. The “ΔBP (change in arterial blood pressure)” value in data set [2] (rat, in vivo) is listed as 0%; in data set [3] (in vivo) it was 0%; in data set [4] (in vivo), 0%. Besides, the “ΔH (change in heart rate)” value in data set [2] (rat, in vivo) stood at 0%; in data set [3] (in vivo), 0%; in data set [4] (in vivo), 0%. The figures for the 50% effective dose (ED50) in data set [2] (setting [6]), in data set [3] and in data set [4] were 0.26 mg/kg, 0.23 mg/kg and 0.135 mg/kg, respectively. The “RI (recovery index)” value in data set [2] (rat) amounted to 0.4 min; in data set [3], 0.65 min; in data set [4], 0.55 min. The Onset came out at 0.55 min in data set [2] (rat), 0.5 min in data set [3] and 0.7 min in data set [4].
Regarding `CC(=O)Oc1ccc(C[N+]2(C)C3CCCC2CC(OC(=O)CCCCCC(=O)OC2CC4CCCC(C2)[N+]4(C)Cc2ccc(OC(C)=O)c(OC(C)=O)c2)C3)cc1OC(C)=O.[Br-].[Br-]` (stereo not drawn) [bis[N-(3,4-diacetoxybenzyl)granataninium-3-yl]pimelate dibromide], the “ΔBP (change in arterial blood pressure)” value in data set [5] (in vivo) came out at 0%; in data set [2] (rat, in vivo) it was 0%; in data set [3] (in vivo) it was 0%; in data set [4] (in vivo), 0%. Moreover, the “ΔH (change in heart rate)” value was found to be 0% in data set [5] (in vivo); 0% in data set [2] (rat, in vivo); 0% in data set [3] (in vivo); 0% in data set [4] (in vivo). For the same compound, the median effective dose (ED50) in data set [5] (intravenous dose causing 50% neuromuscular block) came to 0.15 mg/kg; in data set [2] (setting [6]), 0.175 mg/kg; in data set [3], 0.193 mg/kg; in data set [4], 0.266 mg/kg. Moreover, the “RI (recovery index)” value in data set [5] (spontaneous recovery, 25-75% neuromuscular response) stood at 0.55 min; in data set [2] (rat), 0.4 min; in data set [3] it was 1 min; in data set [4] it was 0.6 min. For the same compound, the Onset in data set [5] (time to 80-85% neuromuscular block) is 1.2 min; in data set [2] (rat) it was 0.45 min; in data set [3], 0.7 min; in data set [4] it was 0.72 min. Moreover, the “VB (vagal block)” value in data set [2] (rat, in vivo) was 0%; in data set [3] (in vivo), 48%.

The record behind these values is patent US6376510B1, “Neuromuscular relaxants” (Newlaxant LLC, priority 1997, dated 2002).
